Experimental data from patent US20060160897A1, “Topical Use of Valproic Acid for the Prevention or Treatment of Skin Disorders” (priority 2003, published 2006).

Experiments:
[1] = system: IL-2 and TNF-α; test: IL-2 and TNF-α ELISA, supernatants of stimulated peripheral blood lymphocytes; format: cell-based, human
Procedure: (§1) Monocyte and macrophage depleted peripheral blood mononuclear cells were obtained from consenting adults via separation using Ficoll-Hypaque. The peripheral blood mononuclear cells (PBMC) fraction was washed and seeded in 9 cm petri dishes. After an incubation of 2 hours at 37° C. to remove most of the monocytes, macrophages, and B-cells, the non-adherent cells were collected and cultured in 175 cm^2 flasks for 2 days. Cells were harvested and adjusted to 3 million cells per ml. Aliquots of 500 μl were transferred to each well of 24-well flat bottom plates. Peripheral blood lymphocytes (PBL's) were treated with various concentrations of HDAC inhibitors as indicated. After a 2 hours incubation time at 37° C. cells were stimulated with phorbol 12-myristate 13-acetate (PMA)/ionomycin (Ion) or activated via T cell receptor (TCR/CD3) complex with 10 μg/ml anti-CD3 mAb (OKT3) and 2.5 μg/ml anti-CD28 mAb. After 24 hours at 37° C. the supernatant was removed and frozen for cytokine assays. Cell pellets were lysed and total RNA was isolated using the RNeasy mini kit from Qiagen.
To perform ELISAs, supernatants of treated and untreated PBL's were collected and IL-2 as well as TNF-α were measured using the Duo Set ELISA Development System (R&D Systems) as described by the manufacturer.

[2] = system: mouse embryos; details: mice, when properly dosed; cited from earlier work
[3] = system: inflammatory cytokines; test: Semiquantitative RT-PCR of cytokine mRNA, PMA/Ion stimulated peripheral blood lymphocytes; format: cell-based, human; details: PBLs preincubated 2 hours, PMA/Ion 24 hours; FIGS. 12B, 13
Procedure: as §1
(§2) One microgram of total RNA was transcribed to cDNA by standard methods using reverse transcriptase and an oligo-dT primer (Invitrogen). For semiquantitative PCR, 2 μl of cDNA was amplified by PCR using specific primers. Primers for PCR were synthesized by MWG and are as follows: […]

[4] = system: histone H4 acetylation; test: Immunohistochemistry of acetylated H4 after topical application to BCC lesions of patients; format: in vivo, human; details: VPA 3% (w/w) topically 16-20 hours before surgical excision vs placebo; FIG. 10
Procedure: Cryostat skin sections of 3 μm thickness were fixed in acetone at room temperature for 10 min. Before staining with anti-acetylated H4 antibody (clone T25, see above) the tissue was blocked by preincubation with F(ab′)2 fragments derived from goat anti-mouse immunoglobulin (Cappel) ( 1/10000 dilution in 50 mM Tris buffered saline, TBS) for 30 min. After rinsing with TBS for 10 min, the sections were incubated with anti-acetylated H4 antibody (clone T25) ( 1/4000 dilution in TBS) at room temperature for 1 hour. Then, the specimens were incubated with the rabbit anti-mouse serum and treated with APAAP (alkaline phosphatase anti-alkaline phosphatase) immunocomplex as described above. The positive staining was developed in red color with naphthol-AS-BI phosphate as a substrate, and New Fuchsin (Dako) as a chromogen. Pictures were taken with a digital camera connected to a light microscopy apparatus.
Skin biopsies were frozen in liquid nitrogen immediately after excision. Immunohistochemistry was then performed on 3 μm sections as described in methods. Biopsies of skin topically treated with Placebo or VPA were processed in parallel, pictures were taken with a light microscopy apparatus connected to a digital camera under the same light intensity.

[5] = system: histone H4 acetylation; test: Western blot of acetylated histone H4 in keratinocytes; format: cell-based, human; details: HaCaT, 24 hours treatment; FIG. 7
Procedure: Western blot: HaCaT cells were seeded into 6-well culture dishes 24 hrs before treatment. […] Whole cell extracts were prepared by lysis of cells in RIPA buffer plus protease inhibitors for denaturing SDS gel electrophoresis on a 12% denaturing polyacrylamid gel. Acetylated histone H4 was detected by Western blot analysis using an anti-acetylated H4 antibody (clone T25; see patent application EP 02.021984.6) and as an equal loading control expression of β-actin was confirmed using an anti-actin antibody (Sigma, Cat. No. A5441).
Cells were plated in 6 well plates at day 0. Drugs were added on day 1, cells were lysed on day 2 with RIPA buffer plus protease inhibitors. 40 μg of total cell lysate were separated by 12.5% SDS PAGE and subjected to immunoblotting with the indicated antibodies.

[6] = system: inflammatory cytokines; test: Semiquantitative RT-PCR of cytokine mRNA, LPS stimulated keratinocytes; format: cell-based, human; details: HaCaT, 200 nM TSA or 5 mM VPA 4 hours, then LPS 100 ng/ml 24 hours, FIG. 12A
Procedure: Human immortalized keratinocytes (HaCaT cells) were seeded at a density of 2.5 million cells per ml into 75 cm^2 flasks. […] After 24 hours at 37° C. cells were lysed and total RNA was isolated using the RNeasy mini kit from Qiagen.
as §2

[7] = system: IL-2 and TNF-α; test: ELISA of IL-2 and TNF-α, blood cells of VPA treated patient stimulated with CD3/CD28; format: in vivo, human; details: CD3/CD28 stimulated 24 hours
Procedure: The cells were either left unstimulated or stimulated with CD3 and CD28 antibodies. After 24 hours at 37° C. the supernatant was collected and the secretion of IL-2 and TNF-α was quantified by ELISA (R&D Systems) (FIGS. 19A and B).

[8] = system: HaCaT cells; test: MTT assay, growth of human immortalized keratinocytes; format: cell-based
Procedure: MTT assay: This calorimetric assay detects the formation of formazan which is proportional to the number of cells present. Tissue culture medium containing drugs was removed and 200 μl of DME containing 2 mg/ml MTT ((3-4, 5-dimethyl thiazol-2yl) 2,5-diphenyltetrazolium bromide) was added to each well. 96-well plates were incubated at 37 ° C., and 10% CO2 for 30 minutes. Medium containing MTT was then removed and the cells were washed once with PBS. Following removal of the PBS, 200 μL DMSO was added to each well and plates were placed on a rotating platform shaker for 5 minutes. Results were obtained by reading the absorbance at a wavelength of 550 nm using a spectrophotometer. Results are expressed as percentages setting the control as 100%.
FIG. 1 graphically depicts the results of growth assays performed on human immortalized keratinocytes (HaCaT cells), treated for three days with the indicated compounds. Drugs were added on the same day of plating (day 0). The MTT assay (to measure cell proliferation) was carried out on day 3. Various combinations of the drugs were used in the growth assays.
Cells were plated in wells on day 0. […] The MTT assay was carried out on day 3. Various combinations of the drugs were also used in the growth assays. […] Thus, the combinatorial activity of these two drugs must be explained via synergistic activity of this treatment.
Drugs were added on the same day of plating (day 0). The MTT assay (to measure cell proliferation) was carried out on the third day. […] Thus, this combinatorial activity of these two drugs must be explained via synergistic activity of this treatment.

[9] = 1 mM, other experiments, PBLs stimulated with PMA/ION and CD3/CD28 mAbs, FIG. 16
[10] = PBLs, increasing concentrations two hours, CD3 and CD28 mAbs 24 hours, FIG. 15
[11] = vs untreated stimulated control

CCCC(CCC)C(=O)O [VPA, 2-propyl-pentanoic acid]
IL-2 secretion ([1]; 0.5 mM, PBLs, CD3/CD28, FIG. 15): only moderate effect
IL-2 secretion ([1]; 1 mM, PBLs, CD3/CD28, FIG. 15): only moderate effect
IL-2 secretion [1, 9]: significant decrease
TNF-α secretion [1, 9]: significant decrease
IL-2 secretion ([1]; 5 mM, PBLs, CD3/CD28, FIG. 15): significantly reduced
IL-2 secretion, dose-response [1, 10]: dose-dependent inhibition
TNF-α secretion, dose-response [1, 10]: dose-dependent inhibition
teratogenicity [2]: teratogenic in the majority of mouse embryos
IL-4 mRNA transcripts [3]: significantly reduced
IL-6 mRNA transcripts [3]: decreased IL-6 mRNA back to the level seen in the unstimulated sample
histone H4 acetylation in BCC cells and normal skin cells of patients [4]: clear increase of histone H4 acetylation
histone H4 acetylation (Western blot) [5]: induces histone H4 hyperacetylation in a dose dependent manner
IFN-γ mRNA transcript [6]: significantly reduced
IL-6 mRNA level [6, 11]: significant decrease
TNF-α mRNA level [6, 11]: significant decrease
IL-2 in culture supernatant (ELISA) [7]: modulates the expression
TNF-α in culture supernatant (ELISA) [7]: modulates the expression
cell growth (MTT assay) ([8]; MTT on day 3, combinations VPA 1 mM + Retinoic Acid 1 or 2 μM, FIG. 2): inhibited growth
cell growth (MTT assay) ([8]; MTT on the third day, 5 μM or 10 μM 5-FU and 1 mM VPA, FIG. 3): inhibited growth
cell growth (MTT assay) ([8]; treated three days, MTT on day 3, combinations VPA 1 mM + Tazarotene 1 or 2 μM, FIG. 1): inhibited cell growth
